Test results: PubChem BioAssay (NCI)
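A five-concentration, 48-hour dose response in 96-well plates underlies each endpoint, interpolated linearly between surrounding concentrations. TGI denotes the concentration required for complete inhibition of growth.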

Assays:
Experiment in all cases: DTP human tumour cell line panel, 48 h
[1] = system: SW-620 colon
[2] = system: LOX IMVI melanoma
[3] = system: SF-268 CNS
[4] = system: NCI-H460 lung
[5] = system: NCI-H522 lung
[6] = system: U251 CNS
[7] = system: MDA-MB-231 breast
[8] = system: ACHN renal
[9] = system: T-47D breast
[10] = system: K-562 leukemia
[11] = system: A549 NSCLC
[12] = system: HCC-2998 colon
[13] = system: MALME-3M melanoma
[14] = system: DU-145 prostate
[15] = system: SNB-19 CNS
[16] = system: TK-10 renal
[17] = system: HL-60(TB) leukemia
[18] = system: EKVX NSCLC
[19] = system: HCT-116 colon
[20] = system: UACC-257 melanoma
[21] = system: HS 578T breast
[22] = system: PC-3 prostate
[23] = system: SR leukemia
[24] = system: NCI-H23 lung
[25] = system: HT29 colon
[26] = system: SN12C renal
[27] = system: COLO 205 colon
[28] = system: SF-539 CNS
[29] = system: CAKI-1 renal
[30] = system: SF-295 CNS
[31] = system: A498 renal
[32] = system: SK-MEL-2 melanoma
[33] = system: CCRF-CEM leukemia
[34] = system: OVCAR-8 ovarian
[35] = system: OVCAR-5 ovarian
[36] = system: RPMI-8226 leukemia
[37] = system: OVCAR-4 ovarian
[38] = system: MCF7 breast
[39] = system: MOLT-4 leukemia
[40] = system: MDA-N
[41] = system: KM12 colon
[42] = system: IGROV1 ovarian
[43] = system: UO-31 renal
[44] = system: HOP-92 NSCLC
[45] = system: NCI-H226 lung
[46] = system: HCT-15 colon
[47] = system: SK-OV-3 ovarian
[48] = system: M14 melanoma
[49] = system: BT-549 breast
[50] = system: SK-MEL-5 melanoma
[51] = system: 786-0 renal
[52] = system: SNB-75 CNS
[53] = system: RXF 393 renal
[54] = system: MDA-MB-435
[55] = system: SK-MEL-28 melanoma
[56] = system: OVCAR-3 ovarian
[57] = system: NCI/ADR-RES ovarian
[58] = system: UACC-62 melanoma

In the case of `COc1cc(-c2oc3c(OC)c(O)cc(O)c3c(=O)c2OC)ccc1O`, the TGI [1] is reported as greater than 100 µM, the TGI [2] is reported as greater than 55.8 µM and the TGI [3] is reported as greater than 23.3 µM. The TGI [4] was greater than 93.5 µM, the TGI [5] was greater than 37.2 µM and the TGI [6] was greater than 62.5 µM. It also gave a TGI [7] greater than 100 µM, a TGI [8] greater than 71.5 µM and a TGI [9] of 18.2 µM. For the same compound, the TGI [10] was greater than 100 µM, the TGI [11] was greater than 100 µM and the TGI [12] was 50.4 µM. It also gave a TGI [13] of 97.5 µM, a TGI [14] greater than 81.5 µM and a TGI [15] greater than 100 µM. It also gave a TGI [16] of 69.6 µM, a TGI [17] greater than 33.3 µM and a TGI [18] of 72.5 µM. The TGI [19] was greater than 100 µM, the TGI [20] was greater than 94.2 µM and the TGI [21] was 6.83 µM. It also gave a TGI [22] greater than 74.9 µM, a TGI [23] greater than 26.7 µM and a TGI [24] greater than 100 µM. The TGI [25] was greater than 100 µM, the TGI [26] was greater than 100 µM and the TGI [27] was greater than 100 µM. The TGI [28] was greater than 50.2 µM, the TGI [29] was 51.5 µM and the TGI [30] was 76.2 µM. It also gave a TGI [31] of 17.2 µM, a TGI [32] of 15.3 µM and a TGI [33] of 24.9 µM. For the same compound, the TGI [34] was greater than 100 µM, the TGI [35] was 78.7 µM and the TGI [36] was 46.3 µM. For the same compound, the TGI [37] was 87.7 µM, the TGI [38] was greater than 75.6 µM and the TGI [39] was 29.4 µM. The TGI [40] was 59.5 µM, the TGI [41] was greater than 100 µM and the TGI [42] was 15.3 µM. It also gave a TGI [43] of 14.8 µM, a TGI [44] of 15.5 µM and a TGI [45] of 97.2 µM. It also gave a TGI [46] greater than 100 µM, a TGI [47] of 9.15 µM and a TGI [48] greater than 31.3 µM. It also gave a TGI [49] of 59.2 µM, a TGI [50] of 20.4 µM and a TGI [51] greater than 100 µM. For the same compound, the TGI [52] was 27.1 µM, the TGI [53] was 51.5 µM and the TGI [54] was 52.3 µM. For the same compound, the TGI [55] was greater than 100 µM, the TGI [56] was 22.3 µM and the TGI [57] was greater than 83.5 µM. The TGI [58] was 24.6 µM.
